Measurements taken from patent US20220332720A1, “BICYCLIC AGONISTS OF STIMULATOR OF INTERFERON GENES STING” (The Scripps Research Institute, priority 2019, published 2022).

Each compound was assayed on THP-1 Lucia ISG cells (assay: ISG-LUC activation assay (ISRE-luciferase assay)). Details: Homo sapiens, THP1-Lucia ISG; THP-1 Lucia ISG reporter cells, 24 hours; score based upon potency and efficacy relative to reference compound; read-out: ISG-LUC activation assay score.
Assay type: cell-based
Excerpt: We have established a robust platform for identifying non-nucleotide small molecule STING agonists. his has been established using a primary assay involving a human THP-1 cell line carrying an IRF-inducible reporter with 5 copies of the IFN signaling response element. Counter screens, involving alternative reporter constructs, rodent cell-based assays, as well as cGAS and STING knock-out cell lines, are used to eliminate luciferase artifacts and ensure human-rodent cross species reactivity, as well as pathway selectivity. Biochemical assays, involving cGAS enzymatic activity and STING protein binding assays, are used to identify the specific target of identified hits.
Tissue culture. Wild-type (cat. no. thpl-isg) and STING KO (cat. no. thpd-kostg) THP-1-Lucia ISG cells were purchased from Invivogen and maintained in growth media consisting of RPMI 1640, 2mM L-glutamine, […], 10% heat-inactivated fetal bovine serum (FBS), 1,000 units/ml penicillin, 1,000 μg/ml streptomycin, 0.25 μg/ml Amphotericin B, and 100 μg/ml zeocin unless otherwise stated.
ISRE-luciferase assay. THP-1 Lucia ISG cells were resuspended in low-serum growth media (2% FBS) at a density of 5×10^5 cells/ml and treated with test article or vehicle (DMSO). 50 μL of cells were seeded into each well of a 384-well white greiner plates and incubated for 24 hours. To evaluate expression of the luciferase reporter, 30 μl of Quanti-luc (Invivogen) detection reagent was added to each well and luminescence was read using an Envision plate reader (Perkin Elmer) set with an integration time of 0.1 seconds.
`COC(=O)c1cc(F)c(F)cc1NC(=O)c1ccc2nccn2n1` [Compound 21] gave an EC50 of over 20 µM.
For `Nc1cc(C(=O)Nc2cc3ccccc3cc2C(=O)O)nn2nnnc12` [Compound 29], the EC50 was over 20 µM.
With `COc1cc(NC(=O)c2cc(NC(=O)OC(C)(C)C)c3nnnn3n2)c(C(=O)O)cc1F` [Compound 86] the EC50 was over 1 µM.
For `COc1ccc(C(=O)O)c(NC(=O)c2cc(N)c3nnnn3n2)c1` [Compound 81], the EC50 was over 1 µM.
Work on `COc1cc(NC(=O)c2ccn3c(N)nnc3n2)c(C(=O)O)cc1F` [Compound 58] yielded an EC50 of over 20 µM.
Work on `COC(=O)c1cc(F)c(F)cc1NC(=O)N1CCn2cncc2C1` [Compound 76] yielded an EC50 of over 1 µM.
`C#Cc1cc(NC(=O)c2cc(N)c3nnnn3n2)c(C(=O)O)cc1C#N` [Compound 36] gave an EC50 of under 3 µM.
For `C#Cc1cc(NC(=O)c2ccn3c(-c4cn[nH]c4)cnc3n2)c(C(=O)OC)cc1F` [Compound 20], the EC50 was over 1 µM.
With `COC(=O)c1cc(F)c(OC)cc1NC(=O)c1ccn2c(N)nnc2n1` [Compound 57] the EC50 was over 20 µM.
`CC#Cc1cc(NC(=O)c2cc(N)c3nnnn3n2)c(C(=O)OC)cc1F` [Compound 39] was tested, and the EC50 was over 1 µM.
For `COc1cc(NC(=O)c2cc(N)c3nnnn3n2)c(C(=O)O)cc1F` [Compound 73], the EC50 was over 1 µM.
Compound `COC(=O)c1cc(F)c(F)cc1NC(=O)c1cc2[nH]cnc2cn1` [Compound 69] has an EC50 of under 0.9 µM.
With `C=C(F)c1ccc(C(=O)O)c(NC(=O)c2cc(N)c3cnnn3n2)c1` [Compound 33] the EC50 was over 1 µM.
`C#Cc1cc(NC(=O)c2cc(N)n3ccnc3n2)c(C(=O)O)cc1F` [Compound 32] showed an EC50 of over 1 µM.
`COC(=O)c1cc(F)c(OC)cc1NC(=O)c1ccc2c(ncn2C)n1` [Compound 56] was tested, and the EC50 was over 1 µM.
For `O=C(O)c1cc(Cl)c(Cl)cc1NC(=O)c1cccn2cnnc12` [Compound 88], the EC50 was over 20 µM.
With `Nc1cc(C(=O)Nc2cc(Cl)c(Cl)cc2C(=O)O)nn2nnnc12` [Compound 82] the EC50 was over 1 µM.
For `C#Cc1cc(NC(=O)c2cc(N)c3nnnn3n2)c(C(=O)OC)cc1Cl` [Compound 34], the EC50 was under 0.9 µM.
With `C#Cc1cc(NC(=O)c2ccn3c([S+](C)[O-])nnc3n2)c(C(=O)O)cc1F` (stereo not drawn) [Compound 63] the EC50 was over 20 µM.
`COC(=O)c1cc(F)c(F)cc1NC(=O)c1cc2ncccn2n1` [Compound 85] gave an EC50 of over 20 µM.
`C#Cc1cc(NC(=O)c2ccn3nc(N)nc3n2)c(C(=O)O)cc1F` [Compound 37] gave an EC50 of over 20 µM.
`O=C1CCn2nc(C(=O)Nc3cc(Cl)c(Cl)cc3C(=O)O)nc2N1` [Compound 23] showed an EC50 of over 20 µM.
`COc1cc2nc(-c3cc(N)c4nnnn4n3)oc(=O)c2cc1F` [Compound 49] gave an EC50 of under 0.9 µM.
In the case of `Nc1cc2nnnn2nc1C(=O)Nc1cc(Cl)c(Cl)cc1C(=O)O` [Compound 74], the EC50 is reported as under 3 µM.
`COC(=O)c1cc(F)c(F)cc1NC(=O)c1ccn2c(C#N)cnc2n1` [Compound 75] gave an EC50 of over 1 µM.
`COC(=O)c1cc(F)c(F)cc1NC(=O)c1ccc2nnnn2n1` [Compound 71] showed an EC50 of over 1 µM.
`C#Cc1cc(NC(=O)c2ccc3c(-c4nnc[nH]4)nnn3n2)c(C(=O)O)cc1F` [Compound 61] gave an EC50 of over 1 µM.
`C#Cc1cc(NC(=O)c2cc(N)c3nnnn3n2)c(C(=O)O)nc1Cl` [Compound 11] was tested, and the EC50 was over 1 µM.
With `C#Cc1cc(NC(=O)c2cc(N)c3[nH]c(C4CC4)nc3n2)c(C(=O)OC)cc1F` [Compound 27] the EC50 was over 20 µM.
Work on `CCOC(=O)c1nc(Cl)sc1NC(=O)c1cc(N)c2nnnn2n1` [Compound 45] yielded an EC50 of over 1 µM.
`C=Cc1ccc(C(=O)O)c(NC(=O)c2cc(N)c3nnnn3n2)c1` [Compound 16] was tested, and the EC50 was over 1 µM.
`COC(=O)c1cc(Cl)c(Cl)cc1NC(=O)c1nc2n(n1)CCC(=O)N2` [Compound 91] gave an EC50 of over 1 µM.
Work on `C=C(F)c1cc(NC(=O)c2cc(N)c3nnnn3n2)c(C(=O)O)cc1F` [Compound 26] yielded an EC50 of over 1 µM.
Compound `COC(=O)c1cc(F)c(C)cc1NC(=O)c1cc(N)c2nnnn2n1` [Compound 40] has an EC50 of under 0.9 µM.
Work on `COc1cc(NC(=O)c2cc(N)c3nnnn3n2)c(C(=O)OC(C)OC(C)=O)cc1F` (stereo not drawn) [Compound 54] yielded an EC50 of under 0.9 µM.
`Nc1cc(C(=O)Nc2cc(Cl)c(Cl)cc2C(=O)O)nn2nncc12` [Compound 17] showed an EC50 of over 1 µM.
`C#Cc1cc(NC(=O)c2cc(N)c3nnnn3n2)c(C(=O)O)cc1Cl` [Compound 14] showed an EC50 of under 3 µM.
With `COC(=O)c1nc(Cl)c(Cl)cc1NC(=O)c1cnc2nc[nH]c2c1` [Compound 25] the EC50 was over 20 µM.
`C=Cc1cc(NC(=O)c2cc(N)c3nnnn3n2)c(C(=O)O)cc1F` [Compound 5] was tested, and the EC50 was over 1 µM.
`C#Cc1ccc(C(=O)O)c(NC(=O)c2cc(N)c3nnnn3n2)c1` [Compound 24] showed an EC50 of over 1 µM.
`C#Cc1cc(NC(=O)c2ccn3nc(-c4cn[nH]c4)nc3n2)c(C(=O)O)cc1F` [Compound 51] was tested, and the EC50 was over 20 µM.
`C#Cc1cc(NC(=O)c2ccn3c(S(C)(=O)=O)nnc3n2)c(C(=O)O)cc1F` [Compound 62] gave an EC50 of over 20 µM.
With `C#Cc1cc(NC(=O)c2cc(N)c3nnnn3n2)c(C(=O)O[C@@H]2CSSC[C@H]2O)cc1F` [Compound 60] the EC50 was over 1 µM.
Work on `Nc1cc(C(=O)Nc2cc(C3CC3)ccc2C(=O)O)nn2nnnc12` [Compound 31] yielded an EC50 of over 20 µM.
`C#Cc1cc(NC(=O)c2cc(N)c3ncnn3n2)c(C(=O)O)cc1F` [Compound 8] gave an EC50 of over 1 µM.
Work on `C#Cc1cc(NC(=O)c2ccc3c(C(N)=O)nnn3n2)c(C(=O)O)cc1F` [Compound 12] yielded an EC50 of under 3 µM.
Work on `C#Cc1cc(NC(=O)c2ccc3nnnn3n2)c(C(=O)OC)cc1F` [Compound 42] yielded an EC50 of under 0.9 µM.
`C#Cc1cc(NC(=O)c2ccc3nnnn3n2)c(C(=O)O)cc1F` [Compound 9] gave an EC50 of under 3 µM.
Work on `C#Cc1cc(NC(=O)c2cc(N)n3c(C#N)cnc3n2)c(C(=O)O)cc1F` [Compound 46] yielded an EC50 of over 20 µM.
`COc1cc(NC(=O)c2ccc3c(ncn3C)n2)c(C(=O)O)cc1F` [Compound 55] showed an EC50 of over 20 µM.
`C#Cc1cc(NC(=O)c2cc(N)nn3nnnc23)c(C(=O)O)cc1F` [Compound 50] showed an EC50 of over 1 µM.
In the case of `C#Cc1cc(NC(=O)c2ccn3c(-c4cn[nH]c4)cnc3n2)c(C(=O)O)cc1F` [Compound 4, 2-(3-(1H-pyrazol-4-yl)imidazo[1,2-a]pyrimidine-7-carboxamido)-4-ethynyl-5-fluorobenzoic acid], the EC50 is reported as over 20 µM.
`COC(=O)c1cc(F)c(F)cc1NC(=O)c1nc2cnccn2n1` [Compound 80] gave an EC50 of over 1 µM.
Work on `COC(=O)c1cc(F)c(OC)cc1NC(=O)c1cc(N)c2nnnn2n1` [Compound 67] yielded an EC50 of under 0.9 µM.
`C#Cc1cc(NC(=O)c2ccn3c(-c4ccncc4)nnc3n2)c(C(=O)O)cc1F` [Compound 59] showed an EC50 of over 20 µM.
`C#Cc1cc2nc(-c3ccc4nnnn4n3)oc(=O)c2cc1F` [Compound 44] showed an EC50 of under 0.9 µM.
Work on `COC(=O)c1cc(F)c(OC)cc1NC(=O)c1cc(NC(=O)OC(C)(C)C)c2nnnn2n1` [Compound 79] yielded an EC50 of over 1 µM.
Work on `COc1cc(NC(=O)c2ccc3cnnn3n2)c(C(=O)O)cc1F` [Compound 6] yielded an EC50 of under 3 µM.
In the case of `COC(=O)c1cc(F)c(F)cc1NC(=O)c1cccn2cnnc12` [Compound 15], the EC50 is reported as over 1 µM.
`C#Cc1cc(NC(=O)c2cc(NC(=O)OC(C)(C)C)c3nnnn3n2)c(C(=O)OC)cc1F` [Compound 70] gave an EC50 of over 1 µM.
Compound `COC(=O)c1cc(C#N)c(Cl)cc1NC(=O)c1cc2[nH]cnc2cn1` [Compound 68] has an EC50 of over 1 µM.
`COC(=O)c1cc(Cl)c(Cl)cc1NC(=O)c1cccn2cnnc12` [Compound 89] was tested, and the EC50 was over 1 µM.
Compound `COC(=O)c1cc(C#N)c(Cl)cc1NC(=O)c1cnc2nc[nH]c2c1` [Compound 72] has an EC50 of over 20 µM.
